The values below come from EP4101442A1, “PROCESS FOR PREPARING COMPACTED COENZYME Q10 PARTICLES OF HIGH DENSITY AND IMPROVED FLOWABILITY” (Tradichem Industrial Services, S.L., priority 2021, dated 2022).

Read-outs that look alike come from different tables or passages of the source.

Holding throughout (assay type): physicochemical
One data set can be described thus: Flow rate.
A short description of data set [1]: Handling observed during manufacture of capsules and tablets. As for the experimental part:
All ingredients were added to a Turbula mixer, blended during 15 minutes, and filled into capsules of 00 size.
Furthermore, the powder mixture was easily blended and good homogeneity was easily achieved, without segregation of the ingredients.
All ingredients were mixed in Turbula mixer during about 15 minutes and compressed into tablets.
The powder mixture was easily blended and had good homogeneity, without segregation of the ingredients.

The nature of data set [2]: Hausner ratio calculated from bulk and tapped density. As for the experimental part:
Hausner ratio is also predictive of powder flow, and is calculated according to the following formula: Hausner ratio = (Density (tapped))/(Density (bulk)) […] [formula]
In this case, a Hausner ratio greater than 1.34 is generally considered to be an indication of poor flowability.
(§1) The relationship between Carr index and/or Hausner ratio with powder flowability is well recognized in the art, for example, as disclosed by M. E. Aulton, in "Powder flow", chapter 12 of the well-recognized reference book in pharmaceutical technology "Aulton's Pharmaceutics. The design and manufacture of medicines", Fifth Edition 2018, M.E. Aulton and K.M.G. Taylor, Editors, Elsevier Ltd, as summarized in the following table: […]

A short description of data set [3]: Carr index (compressibility) calculated from bulk and tapped density. As for the experimental part:
The Carr index, also called Carr's index or compressibility index, is calculated according to the following formula: Carr index = (Density (tapped)−Density (bulk))/(Density (tapped)) × 100 [formula]
Free flowing powders have smaller values of the Carr index than poor flowing powders. In general, a Carr index greater than 25 is considered to be an indication of poor flowability, and below 15, of good flowability.
as §1

Data set [4] is described as follows: Aspect (visual appearance) of the powder or granules. From the text:
It can be observed that the non-compacted material has damp and agglomerated appearance, whereas the compacted product has dry, non-agglomerated, flowable appearance.

A further data set can be described thus: Particle size by sieving. The settings on record: compacted product passed through a sieve of 800 micron opening; 100% of the particles. An excerpt: The compactor was connected to a rotor granulator for milling the outcoming compacted plaque. The granulation speed was fixed to 70 r.p.m. and the obtained granulate was passed through a sieve of 800 micron opening.

Data set [5] is described as follows: Tapped density (PT-TD200 Tap Density Tester). As for the experimental part: On the other hand, tapped density, also called compacted density, of a powder is the ratio of the mass of the powder to the volume occupied by the powder after it has been tapped for a defined period of time. Tapped density is measured by first gently introducing a known sample mass into a graduated cylinder and carefully levelling the powder without compacting it. The cylinder is then mechanically tapped by raising the cylinder and allowing it to drop under its own weight using a suitable mechanical tapped density tester that provides a suitable fixed drop distance and nominal drop rate
(§2) Bulk density and tapped density can be measured according to the method disclosed in the European Pharmacopoeia section 2.9.34 (Bulk density and tapped density of powders), for example, the bulk density may be measured using the PT-SV100 Scott Volumeter and the tapped density may be measured using the PT-TD200 Tap Density Tester (Pharma Test Apparatebau AG, Germany).
(§3) The bulk density was measured using a PT-SV100 Scott Volumeter (Pharma Test) and the tapped density was measured using a PT-TD200 Tap Density Tester (Pharma Test).

Data set [6] is described as follows: Angle of repose from radius and height of the poured cone. As to conditions: tan^-1 (height/radius) of the cone after pouring. From the text:
The "angle of repose" is another parameter for indirectly quantifying powder flowability. It is the angle at which a material will rest on a stationary heap, specifically, is the angle formed by the heap slope and the horizontal plane. It may be calculated by different methods, commonly, just pouring the material on a flat surface. It also can be calculated as "drained angle of repose", as the angle measured on the internal conical face of a material which has been formed when drained from an orifice of a flat-bottomed container to the horizontal. A dynamic angle of repose can also be used, which is the angle to the horizontal of the free surface formed in a relatively slowly rotating drum (Aulton, op. cit., pg. 197).
In this case, the lower the value of the angle of repose, the higher the flowability of the material. It is generally considered that an angle of repose higher than 45 correlates with poor flowability, whereas an angle of repose under 30 correlates with excellent flowability.
The angle of repose was determined by measuring the radius and the height of the cone formed after pouring the powder, using the formula tan^-1 (height/radius).

Data set [7] in a line: Bulk density (PT-SV100 Scott Volumeter).
Excerpt: The bulk density, also called apparent density, can be defined as the ratio of the mass to the volume of an untapped powder sample, as "poured". The bulk density is given in grams per millilitre (g/ml) and is typically calculated by "pouring" a known mass of powder into a graduated cylinder.
as §2, §3

Setting [8] is: general description of the starting material, 'for example' value.

Regarding `COC1=C(OC)C(=O)C(C/C=C(\C)CC/C=C(\C)CC/C=C(\C)CC/C=C(\C)CC/C=C(\C)CC/C=C(\C)CC/C=C(\C)CC/C=C(\C)CC/C=C(\C)CCC=C(C)C)=C(C)C1=O` [Compacted CoQ10 (Example 1), 2-[(2E,6E,10E,14E,18E,22E,26E,30E,34E)-3,7,11,15,19,23,27,31,35,39-Decamethyltetraconta-2,6,10,14,18,22,26,30,34,38-decaenyl]-5,6-dimethoxy-3-methylcyclohexa-2,5-diene-1,4-dione], in the data set “Flow rate”, the Flow rate entry is “Three times faster than for uncompacted CoQ10. The material does not stick to the walls”. The “flowability and adherence during tablet preparation” value in data set [1] (30 mg tablets by direct compression, Turbula mixer about 15 minutes) is “good flowability and did not adhere neither to the walls of vessels and mixers nor to the punches and dies of the tableting machine”. For the same compound, the “flowability and adherence during capsule preparation” value in [1] (100 mg hard gelatin capsules, Turbula mixer 15 minutes) is “good flowability and did not adhere to the walls of vessels and mixers”. Further, the Hausner ratio in data set [2] was 1.10. Further, in data set [3], the “Compressibility (Carr Index)” value was 8.78%. For the same compound, the Aspect entry in data set [4] was “Orange granules without agglomerates, highly flowable and with dry appearance”. The particle size entry in “Particle size by sieving” is reported as “less than 800 microns”. This compound also showed a Tapped density in data set [5] of 0.57 g/mL. The same compound showed an Angle of repose in data set [6] of 10°. For the same compound, the Bulk density in [7] and in data set [7] (listed as compacted coenzyme Q10) was 0.52 g/mL throughout.
Take `COC1=C(OC)C(=O)C(C/C=C(\C)CC/C=C(\C)CC/C=C(\C)CC/C=C(\C)CC/C=C(\C)CC/C=C(\C)CC/C=C(\C)CC/C=C(\C)CC/C=C(\C)CCC=C(C)C)=C(C)C1=O` [Non-compacted CoQ10 (starting material), 2-[(2E,6E,10E,14E,18E,22E,26E,30E,34E)-3,7,11,15,19,23,27,31,35,39-Decamethyltetraconta-2,6,10,14,18,22,26,30,34,38-decaenyl]-5,6-dimethoxy-3-methylcyclohexa-2,5-diene-1,4-dione]: in the data set “Flow rate”, the Flow rate result is listed as “Slow, the material sticks to the walls”. For the same compound, the Hausner ratio in data set [2] was 1.55. In addition, the “Compressibility (Carr Index)” value in [3] is 35.3%. Further, the Aspect entry in data set [4] is listed as “Orange powder with damp, agglomerated appearance, hygroscopic”. In addition, the particle size entry in the data set “Particle size by sieving” is “less than 800 microns”. Also, the Tapped density in data set [5] came out at 0.34 g/mL. Moreover, the “tapped (or compacted) density” value in data set [5] (setting [8]) is on record as “about 0.34 mg/ml”. In data set [6], this compound had an Angle of repose of 45°. Further, the Bulk density in data set [7] and in data set [7] (listed as coenzyme Q10 raw material) was 0.22 g/mL throughout. For the same compound, the “bulk (or apparent) density” value in data set [7] (setting [8]) was “about 0.22 mg/ml”.
